In US12233114B2, “Method for treating diabetes” (Novo Nordisk A/S, priority 2016, dated 2025):

Key:
[1] = test system: adult human subjects with type 2 diabetes that were at high risk for cardiovascular events; assay: Cardiovascular outcomes trial (DEVOTE): insulin degludec vs insulin glargine, time to first MACE; type: in vivo; conditions: for Hazard Ratio (95% CI), time to first MACE: insulin degludec vs insulin glargine
Source text: This trial concerned incidence of cardiovascular events in adult human subjects with type 2 diabetes that were at high risk for cardiovascular events, including such subjects with existing cardiovascular disease. The primary objective of this trial was to confirm the cardiovascular safety of insulin degludec (Tresiba®) compared to that of insulin glargine (Lantus®). The secondary objective was to assess efficacy of insulin degludec on markers of glycaemic control and to assess safety on other parameters in subjects with type 2 diabetes that were at high risk for cardiovascular events.
An 18-month recruitment period was planned. […] Subjects were randomised 1:1 in a double-blinded manner to receive blinded insulin degludec or blinded insulin glargine, each added to standard of care. Subjects continued their current antidiabetic therapy except for the basal insulin component (if any), which was replaced by the investigational product. Treatment with bolus insulin was allowed.
Subjects not currently on insulin were to initiate basal insulin at a dose of 10 units OD given between dinner and bedtime. Subjects receiving basal insulin OD were to transfer unit-to-unit from their previous basal insulin dose. Subjects receiving twice-daily (or more) basal insulin transferred to an OD regimen and the pre-trial total basal insulin dose was reduced by 20-30% in accordance with the label for insulin glargine. For subjects receiving premixed/biphasic insulin OD, the basal component was calculated and transferred unit-to-unit to investigational product OD. The bolus insulin component was calculated and transferred unit-to-unit to bolus insulin and given at the most appropriate meal at the investigator's discretion. For subjects receiving premixed/biphasic insulin twice daily (or more), the total basal component was calculated, reduced by 20-30% and transferred to investigational product OD; the bolus component was to be calculated and transferred to insulin aspart and dosed with the most appropriate meals at the investigator's discretion. Subjects treated with bolus insulin as part of their current insulin regimen could be transferred to insulin aspart unit-to-unit from their previous bolus insulin dose, at the investigator's discretion.
Subjects adjusted their basal insulin dose weekly, aiming for a pre-breakfast (fasting) SMPG value of 71-90 mg/dL (4.0-5.0 mmol/L) by using the algorithm in Table 6. The basal dose was adjusted based on the lowest of three pre-breakfast SMPG values, preferably measured two days prior to dose adjustment and on the day of the dose adjustment. No maximum dose was specified. The investigators were to guide the subjects in adjusting their insulin at clinic visits and phone contacts. Investigators and subjects were recommended to follow the basal insulin titration algorithm. Importantly, however, the decision of adjustment of insulin doses was to be based on all available information, such as symptoms of hypoglycaemia and hyperglycaemia, previous responses to dose adjustments and SMPG values other than those required as per protocol.
Intensification with bolus insulin and other antidiabetic treatments was allowed during the course of the trial. The starting dose of bolus insulin was 4 units per relevant meal. […] Titration of bolus insulin could also be done based on carbohydrate counting. This was to be done at the investigator's discretion.
Subjects received insulin degludec or insulin glargine by subcutaneous administrations once daily in addition to the subject's standard treatment. Basal insulin was injected in the thigh, the upper arm (deltoid area) or the abdominal wall. The formulations were administered in the form of an aqueous solution comprising insulin degludec or insulin glargine, using identical 100 units/mL, 10-mL vials and 1-mL syringes.
The results of this trial may be presented herein as a number or fraction of subjects experiencing an event.

[2] = test system: human subjects with T2DM inadequately controlled on insulin glargine in combination with metformin; assay: Example 3: 26-week open-label trial, IDegLira vs IGlar, both in combination with metformin; type: in vivo; conditions: 26 weeks of treatment
Experimental: A 26-week multinational, multi-centre, open-label, two-arm parallel, randomised, treat-to-target trial in 557 human subjects with T2DM inadequately controlled on insulin glargine (IGlar, Lantus®) at a daily dose between 20-50 units (both inclusive) in combination with metformin was carried out. The primary objective was to confirm the efficacy of IDegLira in controlling glycaemia in human subjects with T2DM on previous treatment with IGlar. The secondary objective was to compare safety of IDegLira to IGlar after 26 weeks of treatment and to confirm superiority of IDegLira versus IGlar after 26 weeks of treatment on one or more of the following: change from baseline in HbA1c, confirmed hypoglycaemia, change from baseline in body weight.
IGlar was given at a start dose equal to the pre-trial daily dose of IGlar (dose-to-dose switch) and was titrated according to a predefined titration algorithm with no maximum dose.
The trial included a screening visit to assess subjects' eligibility and weekly visits/phone contacts during the 26-week treatment period.
Subjects randomised to treatment with IDegLira discontinued the pre-trial IGlar treatment prior to initiating IDegLira treatment with a start dose of 16 dose steps, equivalent to 16 units insulin degludec and 0.6 mg liraglutide. […] Subjects randomised for treatment with IGlar […] on the pre-trial, stable IGlar treatment prior to initiating IGlar treatment with a start dose of IGlar equal to the pretrial daily dose (dose-to-dose switch). No predefined maximum dose was specified for IGlar treatment.
Subjects received IDegLira or IGlar by subcutaneous administration once daily in addition to metformin. […] IGlar was to be injected according to the approved label and using the pre-trial dosing time and injection site throughout the trial.

[3] = test system: human subjects with type 2 diabetes inadequately controlled with basal insulin and metformin; conditions: in vivo
Experimental: (§1) A 26-week randomised, parallel two-arm, double-blind, multi-centre, multinational, treat-to-target trial in 413 human subjects with type 2 diabetes inadequately controlled with basal insulin and metformin with or without SU or glinides was carried out comparing the efficacy and safety of insulin degludec+liraglutide (Xultophy®, IDegLira) once daily with insulin degludec (Tresiba®, IDeg) once daily both added on to metformin. […] The secondary objective was to compare the overall efficacy and safety parameters of IDegLira and IDeg after 26 weeks of treatment. All trial endpoints were collected and assessed throughout the entire duration of the trial.
(§2) Eligible subjects were randomised 1:1 to either once daily IDegLira or once daily IDeg, both in combination with metformin. […] For each subject, the duration of the trial was to be approximately 29 weeks: up to 2 weeks between screening and first treatment, 26 weeks of treatment and at least 1 week of wash-out at the end of the trial.
(§3) The IDegLira dosing unit is defined as a dose step. One (1) IDegLira dose step consists of 1 unit insulin degludec and 0.036 mg liraglutide. Treatment with IDegLira was initiated at 16 dose steps containing 16 units insulin degludec and 0.6 mg liraglutide. Adjustment of the IDegLira dose was performed twice weekly based on the mean of 3 preceding daily fasting SMPG values on 3 consecutive days. Adjustments occurred in 2 dose steps aiming at a fasting glycaemic target of 4.0-5.0 mmol/L (72-90 mg/dL). The maximum allowed dose was 50 dose steps (50 units IDeg/1.8 mg liraglutide). IDeg treatment was initiated with 16 units, and titrated twice weekly to the fasting glycaemic target of 4.0-5.0 mmol/L (72-90 mg/dL) based on the mean fasting SMPG from 3 proceeding measurements as described for IDegLira. The maximum allowed dose was 50 units.
(§4) Subjects received IDegLira or IDeg by subcutaneous administration in addition to metformin. IDegLira or IDeg was injected subcutaneously in the thigh, upper arm (deltoid region) or abdomen once daily preferably at the same time every day. The injection area chosen were to remain unchanged throughout the trial, but rotation within the area was recommended.

[4] = test system: adult human subjects with type 2 diabetes that were at high risk for cardiovascular events; assay: CV risk score model and subgroup analysis of MACE based on the DEVOTE trial; type: in vivo; design: key to Estimate (risk of MACE with IDeg compared to IGlar): hazard ratio of MACE, IDeg vs IGlar; conditions: for Estimated hazard ratio (HR) for MACE by CV risk score: IDeg/IGlar
Source text: Based on the DEVOTE trial, a cardiovascular (CV) risk score has been developed for individuals with established cardiovascular risk. This risk score was developed using available medical history, baseline information and cardiovascular events occurring during the trial. […] The variables are listed in descending order according to their impact on the overall risk of major adverse cardiovascular events (MACE), here consisting of cardiovascular death, non-fatal myocardial infarction, or non-fatal stroke. The combination of these variables yields an algorithm that can be used to determine the risk of future MACEs and to determine the benefit of being treated with IDeg compared to IGlar.
The CV risk score and estimated MACE hazard ratio for CV risk scores by quartiles based on number of events are presented in FIG. 1. […] This benefit is seen regardless of which of the individual predictors contribute to the high score.
For example, subjects with a BMI ≥30 kg/m^2 and diastolic blood pressure ≥80 mmHg, and subjects with a diastolic blood pressure ≥80 mmHg who were treated with statins would have a benefit with IDeg compared to IGlar in terms of risk of MACE (Table 11).

[5] = test system: human subjects with type 2 diabetes inadequately controlled with basal insulin and metformin; assay: Example 2: 26-week double-blind trial, IDegLira vs IDeg, both added on to metformin; conditions: 26 weeks of treatment
Experimental: as §1, §2, §3, §4

Substance: IGlar: Insulin glargine (Lantus®), commercially available basal insulin, active comparator
- n, number of subjects with a first MACE ([1]; all subjects): 356
- proportion of subjects with a first MACE ([1]; all subjects): 9.3%
- n, number of subjects with a first MACE ([1]; subgroup Africa): 18
- proportion of subjects with a first MACE ([1]; subgroup Africa): 14.4%
- n, number of subjects with a first MACE ([1]; subgroup Asia): 31
- proportion of subjects with a first MACE ([1]; subgroup Asia): 9.4%
- n, number of subjects with a first MACE ([1]; subgroup Female): 131
- proportion of subjects with a first MACE ([1]; subgroup Female): 9.1%
- n, number of subjects with a first MACE ([1]; subgroup Male): 225
- proportion of subjects with a first MACE ([1]; subgroup Male): 9.5%
- Mean body weight increase [2]: 1.8 kg
- proportion of subjects experiencing confirmed hypoglycaemic episodes during the trial [2]: 49.1%
- ΔDiastolic blood pressure (change from baseline) [2]: −1.4 mmHG
- ΔHeart rate (change from baseline) [2]: −0.2 bpm
- ΔSystolic blood pressure (change from baseline) [2]: −0.2 mmHG

Substance: N^εB29—(N^α—(HOOC(CH2)14CO)-γ-Glu) desB30 human insulin [IDeg]
- n, number of subjects with a first MACE ([1]; all subjects): 325
- proportion of subjects with a first MACE ([1]; all subjects): 8.5%
- Hazard Ratio (95% CI), time to first MACE ([1]; all subjects, MACE = CV death, non-fatal MI, non-fatal stroke, Cox model): 0.91 (0.78;1.06)
- n, number of subjects with a first MACE ([1]; subgroup Africa): 6
- proportion of subjects with a first MACE ([1]; subgroup Africa): 4.6%
- n, number of subjects with a first MACE ([1]; subgroup Asia): 13
- proportion of subjects with a first MACE ([1]; subgroup Asia): 4.1%
- n, number of subjects with a first MACE ([1]; subgroup Female): 99
- proportion of subjects with a first MACE ([1]; subgroup Female): 7.0%
- n, number of subjects with a first MACE ([1]; subgroup Male): 226
- proportion of subjects with a first MACE ([1]; subgroup Male): 9.4%
- Hazard Ratio (95% CI), time to first MACE ([1]; subgroup Region: Africa): 0.30 (0.12; 0.77)
- Hazard Ratio (95% CI), time to first MACE ([1]; subgroup Region: Asia): 0.42 (0.22; 0.81)
- Hazard Ratio (95% CI), time to first MACE ([1]; subgroup Sex: Female): 0.76 (0.59; 0.99)
- Hazard Ratio (95% CI), time to first MACE ([1]; subgroup Sex: Male): 0.99 (0.83; 1.20)
- Adverse event and tolerability profiles [3]: consistent with previous findings
- ΔHeart rate (change from baseline) [3]: −0.6 bpm
- Estimated hazard ratio (HR) for MACE by CV risk score ([4]; CV risk score quartile High): 1.04
- Estimated hazard ratio (HR) for MACE by CV risk score ([4]; CV risk score quartile Low): 1.02
- Estimated hazard ratio (HR) for MACE by CV risk score ([4]; CV risk score quartile Moderate): 0.89
- Estimated hazard ratio (HR) for MACE by CV risk score ([4]; CV risk score quartile Very High): 0.67
- hazard ratio IDeg/IGlar, risk of MACE ([4]; patients who have a high CV risk score): < 1
- Estimate (risk of MACE with IDeg compared to IGlar) ([4]; subgroup Age 65-75 years AND systolic blood pressure <140 mmHg): 0.70
- Estimate (risk of MACE with IDeg compared to IGlar) ([4]; subgroup Age <65 years AND diastolic blood pressure ≥80 mmHg): 0.64
- Estimate (risk of MACE with IDeg compared to IGlar) ([4]; subgroup Age <65 years AND treated with statins): 0.75
- Estimate (risk of MACE with IDeg compared to IGlar) ([4]; subgroup BMI ≥30 kg/m^2 AND diastolic blood pressure ≥80 mmHg): 0.68
- Estimate (risk of MACE with IDeg compared to IGlar) ([4]; subgroup Diastolic blood pressure <90 mmHg AND HDL ≥1.0 mmol/L): 0.80
- Estimate (risk of MACE with IDeg compared to IGlar) ([4]; subgroup Diastolic blood pressure ≥80 mmHg AND treated with statins): 0.73
- Estimate (risk of MACE with IDeg compared to IGlar) ([4]; subgroup Diastolic blood pressure ≥80 mmHg AND triglycerides >1.7 mmol/L): 0.69
- Estimate (risk of MACE with IDeg compared to IGlar) ([4]; subgroup Established CV risk AND HDL ≥1.0 mmol/L): 0.78
- Estimate (risk of MACE with IDeg compared to IGlar) ([4]; subgroup Established CV risk AND diastolic blood pressure ≥80 mmHg): 0.76
- Estimate (risk of MACE with IDeg compared to IGlar) ([4]; subgroup Established CV risk AND pulse ≥70 bpm): 0.80
- Estimate (risk of MACE with IDeg compared to IGlar) ([4]; subgroup Height <170 cm AND treated with statins): 0.75
- Estimate (risk of MACE with IDeg compared to IGlar) ([4]; subgroup Non-White AND diastolic blood pressure <90 mmHg): 0.64
- Estimate (risk of MACE with IDeg compared to IGlar) ([4]; subgroup Not Hispanic or Latino AND Non-White): 0.64
- Estimate (risk of MACE with IDeg compared to IGlar) ([4]; subgroup Not Hispanic or Latino AND triglycerides >1.7 mmol/L): 0.79
- Estimate (risk of MACE with IDeg compared to IGlar) ([4]; subgroup Previous smoker AND age <65 years): 0.73
- Estimate (risk of MACE with IDeg compared to IGlar) ([4]; subgroup Previous smoker AND cholesterol ≥3 mmol/L): 0.79
- Estimate (risk of MACE with IDeg compared to IGlar) ([4]; subgroup Previous smoker AND diastolic blood pressure ≥80 mmHg): 0.66
- Estimate (risk of MACE with IDeg compared to IGlar) ([4]; subgroup Previous smoker AND treated with statins): 0.79
- Estimate (risk of MACE with IDeg compared to IGlar) ([4]; subgroup Previous smoker AND triglycerides >1.7 mmol/L): 0.73
- Estimate (risk of MACE with IDeg compared to IGlar) ([4]; subgroup Pulse ≥70 bpm AND diastolic blood pressure ≥80 mmHg): 0.74
- Estimate (risk of MACE with IDeg compared to IGlar) ([4]; subgroup Pulse ≥70 bpm AND triglycerides >1.7 mmol/L): 0.76
- Estimate (risk of MACE with IDeg compared to IGlar) ([4]; subgroup Pulse ≥70 mmHg AND treated with statins): 0.72
- Estimate (risk of MACE with IDeg compared to IGlar) ([4]; subgroup Systolic blood pressure <140 mmHg AND HDL ≥1.0 mmol/L): 0.73
- Estimate (risk of MACE with IDeg compared to IGlar) ([4]; subgroup Triglycerides >1.7 mmol/L AND HDL ≥1.0 mmol/L): 0.69
- Estimate (risk of MACE with IDeg compared to IGlar) ([4]; subgroup Triglycerides >1.7 mmol/L AND treated with statins): 0.78
- ΔDiastolic blood pressure (change from baseline) [5]: −0.7 mmHG
- ΔSystolic blood pressure (change from baseline) [5]: −1.7 mmHG
